1 compound from ChEMBL document CHEMBL5532675, “Discovery of 4-Ethoxy-6-chloro-5-azaindazoles as Novel PDE4 Inhibitors for the Treatment of Alcohol Use Disorder and Alcoholic Liver Diseases” (J Med Chem, 2024) can be followed below.

Data set [1] has as its target High affinity cGMP-specific 3',5'-cyclic phosphodiesterase 9A (Homo sapiens) (UniProt O76083). The data set can be described thus: Inhibition of PDE9A (unknown origin) using FAM-cyclic-3',5'-AMP as substrate at 10 uM incubated for 1 hrs by fluorescence polarization based IMAP assay relative to control. (In fluorescence polarisation assays a small probe gives low polarisation when free and higher when bound to something large.)

Data set [2] is described as follows: Selectivity ratio for inhibition of PDE9A (unknown origin) using FAM-cyclic-3',5'-AMP as substrate to inhibition of PDE4B1 (unknown origin) using FAM-cyclic-3',5'-AMP as substrate.
For data set [3], the target named is High affinity 3',5'-cyclic-AMP phosphodiesterase 7A (Homo sapiens) (UniProt Q13946). The data set can be described thus: Inhibition of PDE7A (unknown origin) using FAM-cyclic-3',5'-AMP as substrate at 10 uM incubated for 1 hrs by fluorescence polarization based IMAP assay relative to control.
Chain of High affinity 3',5'-cyclic-AMP phosphodiesterase 7A (Homo sapiens) (Q13946 whole entry): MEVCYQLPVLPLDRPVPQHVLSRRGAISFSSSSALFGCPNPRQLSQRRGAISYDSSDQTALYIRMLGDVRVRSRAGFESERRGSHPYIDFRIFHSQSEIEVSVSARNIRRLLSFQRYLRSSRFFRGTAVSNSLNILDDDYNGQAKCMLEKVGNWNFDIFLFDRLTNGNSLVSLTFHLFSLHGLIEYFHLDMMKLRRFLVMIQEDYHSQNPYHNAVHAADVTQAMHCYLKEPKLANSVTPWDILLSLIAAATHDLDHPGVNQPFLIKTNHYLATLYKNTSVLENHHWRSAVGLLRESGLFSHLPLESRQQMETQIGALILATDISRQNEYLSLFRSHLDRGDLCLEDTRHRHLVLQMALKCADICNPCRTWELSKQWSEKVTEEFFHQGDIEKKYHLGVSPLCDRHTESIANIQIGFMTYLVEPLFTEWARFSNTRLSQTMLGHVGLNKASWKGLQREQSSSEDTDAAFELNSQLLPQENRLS
Data set [4] is described as follows: Selectivity ratio for inhibition of PDE7A (unknown origin) using FAM-cyclic-3',5'-AMP as substrate to inhibition of PDE4B1 (unknown origin) using FAM-cyclic-3',5'-AMP as substrate.
Data set [5] in a line: Selectivity ratio for inhibition of PDE9A (unknown origin) using FAM-cyclic-3',5'-AMP as substrate to inhibition of PDE4D7 (unknown origin) using FAM-cyclic-3',5'-AMP as substrate.
The nature of data set [6]: Selectivity ratio for inhibition of PDE3B (unknown origin) using FAM-cyclic-3',5'-AMP as substrate to inhibition of PDE4D7 (unknown origin) using FAM-cyclic-3',5'-AMP as substrate.
Data set [7] can be described thus: Selectivity ratio for inhibition of PDE3B (unknown origin) using FAM-cyclic-3',5'-AMP as substrate to inhibition of PDE4B1 (unknown origin) using FAM-cyclic-3',5'-AMP as substrate.
For data set [8], the target named is 3',5'-cyclic-AMP phosphodiesterase 4B (Homo sapiens, UniProt Q07343). The data set can be described thus: Inhibition of PDE4B1 (unknown origin) using FAM-cyclic-3',5'-AMP as substrate incubated for 1 hrs by fluorescence polarization based IMAP assay.
Chain of 3',5'-cyclic-AMP phosphodiesterase 4B (Q07343 whole entry): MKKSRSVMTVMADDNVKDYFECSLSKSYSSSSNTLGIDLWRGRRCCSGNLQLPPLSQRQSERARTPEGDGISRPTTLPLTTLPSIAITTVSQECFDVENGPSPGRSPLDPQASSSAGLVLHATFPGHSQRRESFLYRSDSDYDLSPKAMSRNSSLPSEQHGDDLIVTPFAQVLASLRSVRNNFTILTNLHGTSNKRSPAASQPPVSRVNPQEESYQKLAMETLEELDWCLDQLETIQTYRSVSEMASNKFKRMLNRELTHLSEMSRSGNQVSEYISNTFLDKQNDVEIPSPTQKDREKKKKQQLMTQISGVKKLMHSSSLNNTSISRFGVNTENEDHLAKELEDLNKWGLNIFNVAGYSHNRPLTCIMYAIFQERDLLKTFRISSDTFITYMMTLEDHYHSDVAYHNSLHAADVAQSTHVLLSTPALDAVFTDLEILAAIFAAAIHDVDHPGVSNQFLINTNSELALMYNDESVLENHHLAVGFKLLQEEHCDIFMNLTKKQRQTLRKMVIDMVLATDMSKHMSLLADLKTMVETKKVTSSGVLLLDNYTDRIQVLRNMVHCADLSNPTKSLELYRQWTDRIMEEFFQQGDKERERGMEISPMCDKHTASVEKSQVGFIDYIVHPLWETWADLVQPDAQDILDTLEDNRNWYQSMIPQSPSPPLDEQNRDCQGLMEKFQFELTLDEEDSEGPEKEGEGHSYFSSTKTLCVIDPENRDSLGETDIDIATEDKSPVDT
The nature of data set [9]: Selectivity ratio for inhibition of PDE8A1 (unknown origin) using FAM-cyclic-3',5'-AMP as substrate to inhibition of PDE4D7 (unknown origin) using FAM-cyclic-3',5'-AMP as substrate.
Data set [10] in a line: Selectivity ratio for inhibition of PDE7A (unknown origin) using FAM-cyclic-3',5'-AMP as substrate to inhibition of PDE4D7 (unknown origin) using FAM-cyclic-3',5'-AMP as substrate.
Data set [11] addresses T1, 3',5'-cyclic-AMP phosphodiesterase 4D (Homo sapiens, UniProt Q08499). The data set can be described thus: Inhibition of PDE4D7 (unknown origin) using FAM-cyclic-3',5'-AMP as substrate at 100 nM incubated for 1 hrs by fluorescence polarization based IMAP assay relative to control.
Data set [12] deals with T1, 3',5'-cyclic-AMP phosphodiesterase 4D. The data set can be described thus: Inhibition of PDE4D7 (unknown origin) using FAM-cyclic-3',5'-AMP as substrate incubated for 1 hrs by fluorescence polarization based IMAP assay.
Data set [13] is described as follows: Toxicity in ketamine/xylazine-induced anesthetic C57BL/6J mouse model assessed as emetogenic potential by measuring reduction in anesthesia duration at 5 mg/kg, po preadministered with compound for 15 mins followed by ketamine/xylazine administration. The following applies: in vivo, 0.25 h. In kind it is organism-based.
Data set [14] addresses cGMP-inhibited 3',5'-cyclic phosphodiesterase 3B (Homo sapiens) (UniProt Q13370). The data set can be described thus: Inhibition of PDE3B (unknown origin) using FAM-cyclic-3',5'-AMP as substrate at 10 uM incubated for 1 hrs by fluorescence polarization based IMAP assay relative to control.
The nature of data set [15]: Selectivity ratio for inhibition of PDE8A1 (unknown origin) using FAM-cyclic-3',5'-AMP as substrate to inhibition of PDE4B1 (unknown origin) using FAM-cyclic-3',5'-AMP as substrate.
Data set [16] deals with T1, 3',5'-cyclic-AMP phosphodiesterase 4D. The data set can be described thus: Inhibition of PDE4D7 (unknown origin) using FAM-cyclic-3',5'-AMP as substrate at 10 nM incubated for 1 hrs by fluorescence polarization based IMAP assay relative to control.
The next data set has as its system HT-22. The data set can be described thus: Cytotoxicity against mouse HT-22 cells assessed as reduction in cell viability incubated for 48 hrs by MTT assay. Particulars: ht-22, 48 h. Type of data set: toxicity, cell-based. (In general: Tetrazolium dyes change colour on reduction, which living cells bring about.)
The nature of data set [17]: Chemical stability of compound in aqueous solution at pH <6 measured after 48 hrs. The following applies: buffer. In kind it is physicochemical.
Another data set deals with SH-SY5Y. The data set can be described thus: Cytotoxicity against human SH-SY5Y cells assessed as reduction in cell viability incubated for 48 hrs by MTT assay. Type of data set: toxicity, cell-based.
The target of data set [18] is High affinity cAMP-specific and IBMX-insensitive 3',5'-cyclic phosphodiesterase 8A (Homo sapiens) (UniProt O60658). The data set can be described thus: Inhibition of PDE8A1 (unknown origin) using FAM-cyclic-3',5'-AMP as substrate at 10 uM incubated for 1 hrs by fluorescence polarization based IMAP assay relative to control.
Chain of High affinity cAMP-specific and IBMX-insensitive 3',5'-cyclic phosphodiesterase 8A (Homo sapiens) (O60658 whole entry): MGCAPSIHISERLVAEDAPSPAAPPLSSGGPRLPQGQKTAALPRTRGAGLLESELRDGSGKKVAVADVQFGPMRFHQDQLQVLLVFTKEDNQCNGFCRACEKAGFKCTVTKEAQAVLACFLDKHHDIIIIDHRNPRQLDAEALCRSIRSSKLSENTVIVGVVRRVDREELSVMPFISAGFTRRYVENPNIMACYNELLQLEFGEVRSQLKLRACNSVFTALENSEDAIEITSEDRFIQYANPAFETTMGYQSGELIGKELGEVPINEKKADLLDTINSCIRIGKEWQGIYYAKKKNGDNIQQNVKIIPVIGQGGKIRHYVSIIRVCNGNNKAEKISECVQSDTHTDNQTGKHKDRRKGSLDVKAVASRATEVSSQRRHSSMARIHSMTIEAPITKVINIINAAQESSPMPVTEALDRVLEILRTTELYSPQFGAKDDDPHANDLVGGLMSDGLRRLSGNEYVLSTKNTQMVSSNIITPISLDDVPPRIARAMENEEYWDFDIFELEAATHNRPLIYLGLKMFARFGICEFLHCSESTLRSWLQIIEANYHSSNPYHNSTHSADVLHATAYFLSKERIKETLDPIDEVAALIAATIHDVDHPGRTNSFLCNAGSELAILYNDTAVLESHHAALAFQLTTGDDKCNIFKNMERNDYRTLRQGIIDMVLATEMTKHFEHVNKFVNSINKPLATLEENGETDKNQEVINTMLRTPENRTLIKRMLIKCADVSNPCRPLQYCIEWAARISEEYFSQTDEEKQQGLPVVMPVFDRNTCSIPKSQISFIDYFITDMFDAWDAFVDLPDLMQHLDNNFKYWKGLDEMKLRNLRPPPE
Data set [19] is described as follows: Chemical stability of compound in aqueous solution at pH >10 measured after 48 hrs. Particulars: buffer. In kind it is physicochemical.

The structures appear in SMILES notation.

T1 sequence (Q08499 whole entry): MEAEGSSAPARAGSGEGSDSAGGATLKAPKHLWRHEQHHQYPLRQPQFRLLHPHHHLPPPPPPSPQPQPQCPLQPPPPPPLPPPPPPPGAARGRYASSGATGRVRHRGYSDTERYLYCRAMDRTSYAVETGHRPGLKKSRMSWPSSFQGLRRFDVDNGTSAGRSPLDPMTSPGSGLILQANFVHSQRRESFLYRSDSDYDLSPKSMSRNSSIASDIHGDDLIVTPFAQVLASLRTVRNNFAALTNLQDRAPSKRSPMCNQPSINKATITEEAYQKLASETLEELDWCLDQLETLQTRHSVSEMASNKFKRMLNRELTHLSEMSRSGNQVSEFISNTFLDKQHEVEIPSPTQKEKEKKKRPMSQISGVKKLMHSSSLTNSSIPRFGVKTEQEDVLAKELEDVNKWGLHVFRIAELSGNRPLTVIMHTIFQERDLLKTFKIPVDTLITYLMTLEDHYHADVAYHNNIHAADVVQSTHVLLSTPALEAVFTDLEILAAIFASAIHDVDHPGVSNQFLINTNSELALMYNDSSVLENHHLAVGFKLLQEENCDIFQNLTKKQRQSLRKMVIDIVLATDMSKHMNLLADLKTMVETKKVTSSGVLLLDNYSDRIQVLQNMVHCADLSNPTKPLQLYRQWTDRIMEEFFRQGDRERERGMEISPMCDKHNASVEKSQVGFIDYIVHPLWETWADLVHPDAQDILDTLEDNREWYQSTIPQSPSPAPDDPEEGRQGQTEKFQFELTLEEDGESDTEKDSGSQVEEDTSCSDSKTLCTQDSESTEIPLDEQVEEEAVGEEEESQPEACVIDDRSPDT
Chain of cGMP-inhibited 3',5'-cyclic phosphodiesterase 3B (Homo sapiens) (Q13370 whole entry, looked up): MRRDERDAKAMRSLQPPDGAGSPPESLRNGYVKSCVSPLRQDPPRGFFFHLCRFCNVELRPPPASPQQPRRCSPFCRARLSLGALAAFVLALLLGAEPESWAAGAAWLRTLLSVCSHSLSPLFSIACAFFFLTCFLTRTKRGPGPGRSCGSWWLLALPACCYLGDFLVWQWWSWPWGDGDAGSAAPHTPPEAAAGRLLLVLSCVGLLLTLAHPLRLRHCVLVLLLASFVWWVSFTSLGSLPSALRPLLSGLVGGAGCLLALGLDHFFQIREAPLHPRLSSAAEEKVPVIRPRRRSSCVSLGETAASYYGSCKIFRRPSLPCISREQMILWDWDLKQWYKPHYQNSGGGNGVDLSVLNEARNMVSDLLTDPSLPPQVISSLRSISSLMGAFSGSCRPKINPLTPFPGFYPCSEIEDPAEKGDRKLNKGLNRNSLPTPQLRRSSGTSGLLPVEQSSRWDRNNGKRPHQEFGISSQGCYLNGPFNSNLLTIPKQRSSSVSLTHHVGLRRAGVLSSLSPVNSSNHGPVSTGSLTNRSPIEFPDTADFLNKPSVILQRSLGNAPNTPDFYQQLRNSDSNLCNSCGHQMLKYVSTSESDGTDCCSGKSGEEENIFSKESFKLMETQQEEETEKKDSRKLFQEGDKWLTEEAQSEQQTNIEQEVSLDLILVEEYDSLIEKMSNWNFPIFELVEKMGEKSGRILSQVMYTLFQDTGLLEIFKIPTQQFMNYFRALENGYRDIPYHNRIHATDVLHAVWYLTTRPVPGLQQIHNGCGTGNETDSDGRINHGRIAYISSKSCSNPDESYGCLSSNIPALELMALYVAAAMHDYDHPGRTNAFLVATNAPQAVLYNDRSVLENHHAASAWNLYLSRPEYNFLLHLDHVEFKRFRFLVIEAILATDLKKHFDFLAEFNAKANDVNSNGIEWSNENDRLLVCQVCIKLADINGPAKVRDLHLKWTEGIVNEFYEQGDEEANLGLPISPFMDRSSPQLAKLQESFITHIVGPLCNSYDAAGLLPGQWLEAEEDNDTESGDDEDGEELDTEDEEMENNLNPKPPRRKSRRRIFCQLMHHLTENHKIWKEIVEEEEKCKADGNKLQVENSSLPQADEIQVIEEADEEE
Chain of High affinity cGMP-specific 3',5'-cyclic phosphodiesterase 9A (Homo sapiens) (O76083 whole entry): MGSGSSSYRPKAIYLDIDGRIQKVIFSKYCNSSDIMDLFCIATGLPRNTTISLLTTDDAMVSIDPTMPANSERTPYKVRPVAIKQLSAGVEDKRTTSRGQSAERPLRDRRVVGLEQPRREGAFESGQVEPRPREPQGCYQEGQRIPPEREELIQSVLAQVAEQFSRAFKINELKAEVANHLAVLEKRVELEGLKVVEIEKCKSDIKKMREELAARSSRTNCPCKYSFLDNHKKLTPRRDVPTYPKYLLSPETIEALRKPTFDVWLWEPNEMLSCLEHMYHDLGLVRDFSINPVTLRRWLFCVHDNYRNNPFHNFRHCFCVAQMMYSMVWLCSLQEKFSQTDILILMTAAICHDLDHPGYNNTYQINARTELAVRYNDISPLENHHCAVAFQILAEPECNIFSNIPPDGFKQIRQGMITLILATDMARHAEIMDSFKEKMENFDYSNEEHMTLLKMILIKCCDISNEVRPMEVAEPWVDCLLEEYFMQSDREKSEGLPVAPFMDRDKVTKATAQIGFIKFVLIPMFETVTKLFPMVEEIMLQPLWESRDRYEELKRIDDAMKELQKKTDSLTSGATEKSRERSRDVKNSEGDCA

In general, inhibition refers to the drop in the measured response relative to a control, in per cent. A higher inhibition goes with a response far below the control. The IC50 is the concentration that gives 50% inhibition. Low readings indicate greater potency in that assay, high ones weaker potency in that assay. `CCOc1nc(Cl)cc2nn(CCC(=O)O)cc12`: the inhibition worked out at 6% in data set [1]; 12% in data set [3]; 69% in data set [11]; 7% in data set [14]; 35% in data set [16]; 7% in data set [18]. For the same compound, the Selectivity ratio in data set [2], in [4], in [5], in data set [6], in data set [7] and in data set [9] was over 284 throughout. Besides, the Selectivity ratio in data set [10] and in data set [15] was over 284 each time. For the same compound, the results for the IC50 in data set [8] and in [12] were 35.2 nM and 25.6 nM, respectively. The Activity entry in data set [13] was “Toxic”; with HT-22, “Non-Toxic”; with SH-SY5Y, “Non-Toxic”. In addition, the Stability result in [17] and in data set [19] was “Stable” in each case.
